Laboratory results: patent US20220323406A1, “METHODS AND COMPOSITIONS FOR DIFFERENTIATING STEM CELLS” (Massachusetts Institute of Technology, priority 2019, published 2022)
Structures can show the parent of a compound that is named as a salt.

Legend:
[1] = test system: ENR+CD organoids (ISC to Paneth cell differentiation); assay: Primary screen: basal (non-stimulated) lysozyme secretion LYZ.NS, 2.5-D 384-well ENR+CD organoid differentiation; format: cell-based, mouse
Excerpt: (§1) High-throughput screening.

[2] = test system: ENR+CD organoids (ISC to Paneth cell differentiation); assay: Primary screen: CCh-stimulated lysozyme secretion LYZ.S, 2.5-D 384-well ENR+CD organoid differentiation; format: cell-based, mouse; settings: primary screen
Excerpt: as §1

ENR+CD organoids = assay: Primary screen: ATP (CellTiter-Glo 3D, CTG) cell number/viability, 2.5-D 384-well ENR+CD organoids; settings: primary screen; for Z.CTG: standard z score;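 for all read-outs here: compounds given at plating and again on day 3 over a 6-day differentiation from ENR+CV stem-cell-enriched precursors, ATP measured on day 6, plate median as control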
[3] = 1st dose row of the treatment (0.08 uM by row order; dose not reprinted)
[4] = 2nd dose row of the treatment (0.40 uM by row order; dose not reprinted)
[5] = 3rd dose row of the treatment (2.00 uM by row order; dose not reprinted)
[6] = 4th dose row of the treatment (10.00 uM by row order; dose not reprinted)
[7] = primary screen, dose 0.08 uM, FC relative to plate median
[8] = primary screen, dose 0.08 uM, standard z score
[9] = primary screen, dose 0.40 uM, FC relative to plate median
[10] = primary screen, dose 0.40 uM, standard z score
[11] = primary screen, dose 2.00 uM, FC relative to plate median
[12] = primary screen, dose 2.00 uM, standard z score
[13] = primary screen, dose 10.00 uM, FC relative to plate median
[14] = primary screen, dose 10.00 uM, standard z score
[15] = dose 0.08 uM, FC relative to plate median
[16] = dose 0.40 uM, FC relative to plate median
[17] = dose 2.00 uM, FC relative to plate median
[18] = dose 10.00 uM, FC relative to plate median

Compound	Dose.FC.LYZ.NS ([1]; primary screen, dose 0.08 uM) [log2 fold change]	Z.LYZ.NS (standard z score) ([1]; primary screen, dose 0.08 uM)	Dose.FC.LYZ.NS ([1]; primary screen, dose 0.40 uM) [log2 fold change]	Z.LYZ.NS (standard z score) ([1]; primary screen, dose 0.40 uM)	Dose.FC.LYZ.NS ([1]; primary screen, dose 2.00 uM) [log2 fold change]	Z.LYZ.NS (standard z score) ([1]; primary screen, dose 2.00 uM)	Dose.FC.LYZ.NS ([1]; primary screen, dose 10.00 uM) [log2 fold change]	Z.LYZ.NS (standard z score) ([1]; primary screen, dose 10.00 uM)	Dose.FC.LYZ.S ([2]; dose 0.08 uM) [log2 fold change]	Dose.FC.LYZ.S ([2]; dose 0.40 uM) [log2 fold change]	Dose.FC.LYZ.S ([2]; dose 2.00 uM) [log2 fold change]	Dose.FC.LYZ.S ([2]; dose 10.00 uM) [log2 fold change]	Dose.FC.CTG (ENR+CD organoids; dose 0.08 uM) [log2 fold change]	Z.CTG (standard z score) (ENR+CD organoids; dose 0.08 uM)	Dose.FC.CTG (ENR+CD organoids; dose 0.40 uM) [log2 fold change]	Z.CTG (standard z score) (ENR+CD organoids; dose 0.40 uM)	Dose.FC.CTG (ENR+CD organoids; dose 2.00 uM) [log2 fold change]	Z.CTG (standard z score) (ENR+CD organoids; dose 2.00 uM)	Dose.FC.CTG (ENR+CD organoids; dose 10.00 uM) [log2 fold change]	Z.CTG (standard z score) (ENR+CD organoids; dose 10.00 uM)	also measured
(−)-MK 801 Maleate	0.008	0.072	−0.099	−0.864	−0.256	−2.227	−0.259	−2.255	0.015	−0.179	−0.334	−0.403	0.127	0.303	−0.377	−0.899	−0.702	−1.677	−0.936	−2.236	SSMD.LYZ.NS_Rep (strictly standardized mean difference) ([1]; primary screen, 1st dose row of the treatment (0.08 uM by row order; dose not reprinted)): 0.070; SSMD.LYZ.NS_Rep (strictly standardized mean difference) ([1]; primary screen, 2nd dose row of the treatment (0.40 uM by row order; dose not reprinted)): −0.550; SSMD.LYZ.NS_Rep (strictly standardized mean difference) ([1]; primary screen, 3rd dose row of the treatment (2.00 uM by row order; dose not reprinted)): −1.315; SSMD.LYZ.NS_Rep (strictly standardized mean difference) ([1]; primary screen, 4th dose row of the treatment (10.00 uM by row order; dose not reprinted)): −1.708; SSMD.LYZ.S_Rep (strictly standardized mean difference) [2, 3]: 0.116; Z.LYZ.S (standard z score) [2, 3]: 0.099; SSMD.LYZ.S_Rep (strictly standardized mean difference) [2, 4]: −0.976; Z.LYZ.S (standard z score) [2, 4]: −1.159; SSMD.LYZ.S_Rep (strictly standardized mean difference) [2, 5]: −1.187; Z.LYZ.S (standard z score) [2, 5]: −2.160; SSMD.LYZ.S_Rep (strictly standardized mean difference) [2, 6]: −1.768; Z.LYZ.S (standard z score) [2, 6]: −2.604; SSMD.CTG.Rep (strictly standardized mean difference) (ENR+CD organoids; [3]): 0.442; SSMD.CTG.Rep (strictly standardized mean difference) (ENR+CD organoids; [4]): −1.342; SSMD.CTG.Rep (strictly standardized mean difference) (ENR+CD organoids; [5]): −1.102; SSMD.CTG.Rep (strictly standardized mean difference) (ENR+CD organoids; [6]): −1.696
CC(C)NCC(O)COc1cccc2ccccc12 (stereo not drawn) [Propranolol HCl]																					Dose.FC.LYZ.NS [1, 7]: 0.048 log2 fold change; Z.LYZ.NS [1, 8]: 0.418; Dose.FC.LYZ.NS [1, 9]: 0.074 log2 fold change; Z.LYZ.NS [1, 10]: 0.642; Dose.FC.LYZ.NS [1, 11]: 0.164 log2 fold change; Z.LYZ.NS [1, 12]: 1.427; Dose.FC.LYZ.NS [1, 13]: 0.032 log2 fold change; Z.LYZ.NS [1, 14]: 0.276; Dose.FC.LYZ.S [2, 15]: 0.173 log2 fold change; Dose.FC.LYZ.S [2, 16]: 0.204 log2 fold change; Dose.FC.LYZ.S [2, 17]: 0.091 log2 fold change; Dose.FC.LYZ.S [2, 18]: 0.040 log2 fold change; Dose.FC.CTG (ENR+CD organoids; [15]): 0.066 log2 fold change; Dose.FC.CTG (ENR+CD organoids; [16]): 0.054 log2 fold change; Dose.FC.CTG (ENR+CD organoids; [17]): 0.117 log2 fold change; Dose.FC.CTG (ENR+CD organoids; [18]): 0.168 log2 fold change
O=C(c1cncc(Br)c1)N1CCC(N2CCCC2)CC1 [UNC669]	0.066	0.578	−0.006	−0.048	0.070	0.606	0.029	0.249	0.047	−0.029	0.025	0.002	−0.095	−0.226	0.096	0.228	−0.235	−0.561	0.073	0.174	
O=c1cc(-c2ccc(O)cc2)oc2cc(O)cc(O)c12 [Apigenin]	0.132	1.147	0.130	1.131	0.232	2.021	0.097	0.847	0.192	0.165	0.196	0.098	0.246		0.214		0.315		0.026		
VU 0357121	0.079	0.686	−0.010	−0.090	0.030	0.261	−0.027	−0.237	0.152	0.034	0.007	−0.034	0.183	0.438	0.148	0.352	0.012	0.029	−0.059	−0.141	
C[C@H](N[C@@H](CCc1ccccc1)C(=O)O)C(=O)N1CCC[C@H]1C(=O)O.O.O [Enalaprilat Dihydrate]	0.003		−0.003		−0.022		−0.157		−0.001	0.111	−0.095	−0.281	−0.190		−0.124		−0.331		−0.979		Z.LYZ.NS ([1]; primary screen, standard z score, dose 0.08 uM): 0.027; Z.LYZ.NS ([1]; primary screen, standard z score, dose 0.40 uM): −0.030; Z.LYZ.NS ([1]; primary screen, standard z score, dose 2.00 uM): −0.195; Z.LYZ.NS ([1]; primary screen, standard z score, dose 10.00 uM): −1.364; Z.CTG (ENR+CD organoids; dose 0.08 uM): −0.454; Z.CTG (ENR+CD organoids; dose 0.40 uM): −0.296; Z.CTG (ENR+CD organoids; dose 2.00 uM): −0.791; Z.CTG (ENR+CD organoids; dose 10.00 uM): −2.338
C#CCN[C@@H]1CCc2ccccc21 [Rasagiline Mesylate]																					Dose.FC.LYZ.NS [1, 7]: 0.072 log2 fold change; Z.LYZ.NS [1, 8]: 0.631; Dose.FC.LYZ.NS [1, 9]: 0.013 log2 fold change; Z.LYZ.NS [1, 10]: 0.117; Dose.FC.LYZ.NS [1, 11]: 0.048 log2 fold change; Z.LYZ.NS [1, 12]: 0.417; Dose.FC.LYZ.NS [1, 13]: −0.034 log2 fold change; Z.LYZ.NS [1, 14]: −0.294; Dose.FC.LYZ.S [2, 15]: 0.140 log2 fold change; Dose.FC.LYZ.S [2, 16]: 0.077 log2 fold change; Dose.FC.LYZ.S [2, 17]: 0.014 log2 fold change; Dose.FC.LYZ.S [2, 18]: 0.026 log2 fold change; Dose.FC.CTG (ENR+CD organoids; [15]): 0.154 log2 fold change; Dose.FC.CTG (ENR+CD organoids; [16]): 0.103 log2 fold change; Dose.FC.CTG (ENR+CD organoids; [17]): 0.041 log2 fold change; Dose.FC.CTG (ENR+CD organoids; [18]): 0.104 log2 fold change
